{"source": "paper PMC9410420", "about": "“Novel Labdane Diterpenes-Based Synthetic Derivatives: Identification of a Bifunctional Vasodilator That Inhibits CaV1.2 and Stimulates KCa1.1 Channels” (Marine Drugs, 2022)", "key": {"rat aorta rings [1]": {"system": "rat aorta rings", "assay": "KCl-induced contraction of rat aorta rings (electromechanical coupling)", "method": "(§1) The abdominal aorta was gently cleaned of adipose and connective tissues and cut into 3-mm wide rings. These were mounted in organ baths between two parallel, L-shaped, stainless-steel hooks, with one fixed in place and the other connected to an isometric transducer. Rings were allowed to equilibrate for 60 min in modified Krebs-Henseleit solution (composition in mM: 118 NaCl, 4.75 KCl, 1.19 KH2PO4, 1.19 MgSO4, 25 NaHCO3, 11.5 glucose, 2.5 CaCl2, gassed with a 95% O2–5% CO2 gas mixture to create a pH of 7.4) under a passive tension of 1 g. During this equilibration period, the solution was changed every 15 min. Isometric tension was recorded using a digital PowerLab data acquisition system (PowerLab 8/30; ADInstruments). Ring viability was assessed by recording the response to 0.3 µM phenylephrine and 60 mM KCl. Where needed, the endothelium was removed by gently rubbing the lumen of the ring with a forceps tip. This procedure was validated by adding 10 µM acetylcholine at the plateau of phenylephrine-induced contraction; a relaxation greater than 70% or less than 10% denoted the presence or absence of functional endothelium, respectively.\n(§2) Aorta rings were pre-contracted pharmaco-mechanically using 0.3 µM phenylephrine and electromechanically using 25–30 mM or 60 mM KCl. Once the contraction reached a plateau, the compound was added cumulatively into the organ bath. […] The response was calculated as the percentage of phenylephrine- or KCl-induced contraction (taken as 100%)."}, "rat aorta rings [2]": {"system": "rat aorta rings", "assay": "Phenylephrine-induced contraction of rat aorta rings (pharmaco-mechanical coupling)", "conditions": "Rattus norvegicus, 0.3 µM phenylephrine", "method": "as §1, §2"}, "KCa1.1 channel": {"molecular_target": "T1, KCa1.1 channel (Rattus norvegicus, UniProt Q62976)", "T1 construct": "IKCa1.1 measured in tail artery myocytes; endogenous in cells; host or cells: freshly isolated rat tail main artery smooth muscle cells", "T1 sequence (Q62976 whole entry)": "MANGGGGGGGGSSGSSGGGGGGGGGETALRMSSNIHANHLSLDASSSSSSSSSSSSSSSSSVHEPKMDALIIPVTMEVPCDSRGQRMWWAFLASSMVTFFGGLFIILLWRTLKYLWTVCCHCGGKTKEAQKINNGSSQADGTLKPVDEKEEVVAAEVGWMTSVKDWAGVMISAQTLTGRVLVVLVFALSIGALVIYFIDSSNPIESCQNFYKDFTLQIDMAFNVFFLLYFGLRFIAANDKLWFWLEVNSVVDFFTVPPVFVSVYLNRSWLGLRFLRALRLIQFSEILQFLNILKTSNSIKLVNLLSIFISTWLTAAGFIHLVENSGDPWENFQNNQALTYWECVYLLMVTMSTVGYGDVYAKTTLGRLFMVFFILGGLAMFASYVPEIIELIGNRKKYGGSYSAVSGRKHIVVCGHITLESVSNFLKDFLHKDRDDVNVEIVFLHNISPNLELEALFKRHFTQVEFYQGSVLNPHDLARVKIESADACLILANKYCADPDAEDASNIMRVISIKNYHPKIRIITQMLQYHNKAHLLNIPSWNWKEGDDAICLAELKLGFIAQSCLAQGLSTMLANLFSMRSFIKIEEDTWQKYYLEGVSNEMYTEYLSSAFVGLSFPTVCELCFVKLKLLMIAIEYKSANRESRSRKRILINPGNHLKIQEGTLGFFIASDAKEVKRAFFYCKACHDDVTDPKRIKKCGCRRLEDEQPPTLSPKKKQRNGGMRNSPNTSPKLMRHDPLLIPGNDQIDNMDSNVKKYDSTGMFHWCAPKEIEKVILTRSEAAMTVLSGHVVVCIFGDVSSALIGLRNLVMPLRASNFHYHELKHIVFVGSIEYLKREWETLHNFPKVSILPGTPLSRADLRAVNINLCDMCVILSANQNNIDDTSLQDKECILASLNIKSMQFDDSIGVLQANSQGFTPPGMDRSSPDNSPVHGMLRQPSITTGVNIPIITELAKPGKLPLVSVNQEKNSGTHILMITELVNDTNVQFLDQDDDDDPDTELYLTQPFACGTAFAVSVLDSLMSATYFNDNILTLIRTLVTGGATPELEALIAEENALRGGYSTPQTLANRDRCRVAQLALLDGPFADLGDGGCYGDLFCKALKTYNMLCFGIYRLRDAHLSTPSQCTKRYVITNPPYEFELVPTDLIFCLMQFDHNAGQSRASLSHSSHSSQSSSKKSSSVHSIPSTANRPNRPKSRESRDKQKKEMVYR", "T1 sequence (P97678 whole entry partner)": "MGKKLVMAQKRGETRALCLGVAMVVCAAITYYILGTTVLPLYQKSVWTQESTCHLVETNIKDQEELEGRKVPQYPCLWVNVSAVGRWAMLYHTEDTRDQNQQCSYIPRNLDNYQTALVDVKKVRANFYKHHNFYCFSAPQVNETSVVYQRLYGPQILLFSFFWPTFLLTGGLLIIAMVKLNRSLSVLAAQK", "assay": "Whole-cell patch-clamp, K+ current through KCa1.1 channels (IKCa1.1) in tail artery myocytes", "format": "cell-based", "conditions": "3, 10 and 30 µM cumulative; membrane potential 30–70 mV, Vh −40 mV", "method": "The tail main artery was dissected free of its connective tissue, and smooth muscle cells were freshly isolated under the following conditions. […] This solution was gently bubbled and stirred with a 95% O2–5% CO2 gas mixture, as previously described. Cells stored in 0.05 mM Ca^2+ external solution containing 20 mM taurine and 0.5 mg/mL BSA at 4 °C under normal air were used for experiments within two days after isolation.\nAn Axopatch 200B patch-clamp amplifier (Molecular Devices Corporation, Sunnyvale, CA, USA) was used to generate and apply voltage pulses to the clamped cells and record the corresponding membrane currents. Recording electrodes were pulled from borosilicate glass capillaries (WPI, Berlin, Germany) and fire-polished to obtain a pipette resistance of 2–4 MΩ, when filled with an internal solution. At the beginning of each experiment, the junction potential between the pipette and bath solution was electronically adjusted to zero. […]\nK^+ current through the KCa1.1 channel (IKCa1.1) (registration period 500 ms) was measured over a range of test potentials, from −20 mV to 70 mV from a Vh of −40 mV. […] The current–voltage relationships were calculated based on the values recorded during each test pulse (leakage corrected offline). […]"}, "[3]": {"system": "Langendorff perfused rat heart", "assay": "Langendorff perfused rat heart (LVP, CPP, ECG)", "conditions": "for QRS (intraventricular conduction time): control 13.4 ± 0.7; for PQ (atrioventricular conduction time): control 37.8 ± 1.8; for QTc (corrected QT): control 72.97 ± 1.7; for RR (cycle length): control 231.4 ± 7.8; for HR (frequency): control 261.9 ± 9.6", "method": "Spontaneously beating heart was retrogradely perfused via the aorta at a constant perfusion flow in a Langendorff apparatus (Radnoti, Dublin, Ireland) with a physiological salt solution containing (mM) NaCl 118, KCl 4.7, CaCl2 2.5, MgSO4 1.2, NaHCO3 25, KH2PO4 1.2, glucose 11.5, Na pyruvate 2, and EDTA 0.5, and bubbled with a 95% O2−5% CO2 gas mixture (pH 7.4), and kept at 37 °C, as described elsewhere. Hearts were allowed to equilibrate for at least 20 min before 7 exposure. Heart contractility was measured as left ventricle developed pressure (LVDP) using a deionized water-filled latex balloon, connected to a pressure transducer (BLPR, WPI, Berlin, Germany) and inserted into the left ventricular cavity through the mitral valve. A pressure transducer (BLPR, WPI, Berlin, Germany) was placed in the inflow line, to record coronary perfusion pressure (CPP), a measure of coronary vascular resistance. Two steel electrodes, one positioned on the left atrium and the other on the apex of the heart, were used to record the surface electrocardiogram. Heart rate (HR) and RR (cycle length), PQ (atrioventricular conduction time), QRS (intraventricular conduction time), and QT (ventricular depolarization and repolarization) intervals were measured. The digital PowerLab data acquisition system (PowerLab 8/30; ADInstruments, Castle Hill, Australia) and Chart Pro for Windows software v. 7.3.7 (PowerLab; ADInstruments, Castle Hill, Australia) were used to record and analyze LVP, CPP, and ECG. As the QT interval is affected by HR changes (e.g., it shortens when HR increases), Bazett's formula normalized to average rat RR (QTc = QT/(RR/f)1/2) was routinely used to correct it, thus avoiding confounding effects. In this study, “f” (the normalization factor according to the basal RR duration) was 231.4 ms, as this was the average cardiac cycle length."}}, "note": "Like-named read-outs stand apart in the source and are kept apart here."}
{"compound": "CC1(C)CCC[C@]2(C)[C@@H](CC(=O)Nc3ccccc3-n3cccc3)[C@](C)(O)CC[C@@H]12", "note": "[Compound 7]", "values": [{"measurement": "Emax", "setting": "rat aorta rings [1]; endothelium-denuded rat aorta rings pre-contracted by 25 mM KCl, read-out: Emax (percent maximal inhibition), KCl 25 mM-induced contraction", "value": "94.3 ± 4.5", "unit": "%"}, {"measurement": "IC50", "setting": "rat aorta rings [1]; endothelium-denuded rat aorta rings pre-contracted by 25 mM KCl, read-out: IC50, KCl 25 mM-induced contraction", "value": "0.2 ± 0.1", "unit": "µM"}, {"measurement": "Emax", "setting": "rat aorta rings [1]; endothelium-denuded rat aorta rings pre-contracted by 60 mM KCl, read-out: Emax (percent maximal inhibition), KCl 60 mM-induced contraction", "value": "89.7 ± 1.9", "unit": "%"}, {"measurement": "IC50", "setting": "rat aorta rings [1]; endothelium-denuded rat aorta rings pre-contracted by 60 mM KCl, read-out: IC50, KCl 60 mM-induced contraction", "value": "9.3 ± 2", "unit": "µM"}, {"measurement": "Emax", "setting": "rat aorta rings [2]; endothelium-denuded rat aorta rings, read-out: Emax (percent maximal inhibition), phenylephrine-induced contraction, −Endothelium", "value": "≤ 60", "unit": "%"}, {"measurement": "Emax", "setting": "rat aorta rings [2]; endothelium-intact rat aorta rings, read-out: Emax (percent maximal inhibition), phenylephrine-induced contraction, +Endothelium", "value": "8.6 ± 9.3", "unit": "%"}, {"measurement": "Effect on IKCa1.1", "setting": "KCa1.1 channel", "value": "significant concentration-dependent stimulation of the current"}, {"measurement": "QRS (intraventricular conduction time)", "setting": "[3]; 1 µM", "value": "13.6 ± 0.5", "unit": "ms"}, {"measurement": "PQ (atrioventricular conduction time)", "setting": "[3]; 1 µM", "value": "37.2 ± 2.0", "unit": "ms"}, {"measurement": "QTc (corrected QT)", "setting": "[3]; 1 µM", "value": "71.59 ± 0.8", "unit": "ms"}, {"measurement": "RR (cycle length)", "setting": "[3]; 1 µM", "value": "230.8 ± 7.4", "unit": "ms"}, {"measurement": "HR (frequency)", "setting": "[3]; 1 µM", "value": "261.8 ± 9.4", "unit": "bpm"}, {"measurement": "QRS (intraventricular conduction time)", "setting": "[3]; 3 µM", "value": "14.0 ± 0.6", "unit": "ms"}, {"measurement": "PQ (atrioventricular conduction time)", "setting": "[3]; 3 µM", "value": "37.4 ± 1.9", "unit": "ms"}, {"measurement": "QTc (corrected QT)", "setting": "[3]; 3 µM", "value": "72.65 ± 1.3", "unit": "ms"}, {"measurement": "RR (cycle length)", "setting": "[3]; 3 µM", "value": "231.8 ± 7.1", "unit": "ms"}, {"measurement": "HR (frequency)", "setting": "[3]; 3 µM", "value": "256.9 ± 8.3", "unit": "bpm"}, {"measurement": "QRS (intraventricular conduction time)", "setting": "[3]; 10 µM", "value": "13.9 ± 0.6", "unit": "ms"}, {"measurement": "PQ (atrioventricular conduction time)", "setting": "[3]; 10 µM", "value": "39.0 ± 1.9", "unit": "ms"}, {"measurement": "QTc (corrected QT)", "setting": "[3]; 10 µM", "value": "73.31 ± 1.2", "unit": "ms"}, {"measurement": "RR (cycle length)", "setting": "[3]; 10 µM", "value": "236.4 ± 7.1", "unit": "ms"}, {"measurement": "HR (frequency)", "setting": "[3]; 10 µM", "value": "255.3 ± 8.0", "unit": "bpm"}, {"measurement": "QRS (intraventricular conduction time)", "setting": "[3]; 30 µM", "value": "15.2 ± 0.8", "unit": "ms"}, {"measurement": "PQ (atrioventricular conduction time)", "setting": "[3]; 30 µM", "value": "42.2 ± 2.7", "unit": "ms"}, {"measurement": "QTc (corrected QT)", "setting": "[3]; 30 µM", "value": "75.13 ± 1.7", "unit": "ms"}, {"measurement": "RR (cycle length)", "setting": "[3]; 30 µM", "value": "249.8 ± 10.7", "unit": "ms"}, {"measurement": "HR (frequency)", "setting": "[3]; 30 µM", "value": "242.8 ± 11.5", "unit": "bpm"}, {"measurement": "Effect on coronary perfusion pressure (CPP)", "setting": "[3]; 1–30 µM, n = 5", "value": "significantly decreased CPP"}, {"measurement": "Effect on left ventricular pressure (LVP)", "setting": "[3]; 1–30 µM, n = 5", "value": "leaving LVP unaltered"}]}
